Test results taken from BindingDB's records for doi:10.1016/S0045-2068(03)00081-6 (Johns Hopkins University School of Medicine, 2003).
pKi: −log10 of the molar value.

Target: Serotonin N-acetyltransferase (Ovis aries) (UniProt Q29495)
Test: AANAT activity was measured using a spectrophotometric assay in which the enzymatic product CoASH concentration were determined indirectly by monitoring its reaction product with DTNB at 412nm.
Details: pH 6.8

Chain of Serotonin N-acetyltransferase (Ovis aries) (Q29495 whole entry, looked up): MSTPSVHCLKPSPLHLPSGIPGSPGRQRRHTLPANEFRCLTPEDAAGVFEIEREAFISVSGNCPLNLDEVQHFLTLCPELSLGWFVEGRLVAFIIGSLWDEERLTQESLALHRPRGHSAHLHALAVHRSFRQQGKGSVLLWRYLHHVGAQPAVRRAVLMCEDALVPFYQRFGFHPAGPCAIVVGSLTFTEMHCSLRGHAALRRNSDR

| SMILES | pKi |
| --- | --- |
| CC(C)(COP(=O)(O)OP(=O)(O)OC[C@H]1OC(n2cnc3c(N)ncnc32)[C@@H](O)[C@@H]1OP(=O)(O)O)[C@@H](O)C(=O)NCCC(=O)NCCSCCCCCc1c[nH]c2ccccc12 (some centres undefined) [AANAT bisubstrate analog, 4] | 6.44 |
| CC(C)(COP(=O)(O)OP(=O)(O)OC[C@H]1OC(n2cnc3c(N)ncnc32)[C@@H](O)[C@@H]1OP(=O)(O)O)[C@@H](O)C(=O)NCCC(=O)NCCSCCCCc1c[nH]c2ccccc12 (some centres undefined) [AANAT bisubstrate analog, 5] | 6.51 |
| CC(C)(COP(=O)(O)OP(=O)(O)OC[C@H]1OC(n2cnc3c(N)ncnc32)[C@@H](O)[C@@H]1OP(=O)(O)O)[C@@H](O)C(=O)NCCC(=O)NCCSCCCc1c[nH]c2ccccc12 (some centres undefined) [AANAT bisubstrate analog, 6] | 6.08 |
| CC(C)(COP(=O)(O)OP(=O)(O)OC[C@H]1OC(n2cnc3c(N)ncnc32)[C@@H](O)[C@@H]1OP(=O)(O)O)[C@@H](O)C(=O)NCCC(=O)NCCSCCCNCCc1c[nH]c2ccccc12 (some centres undefined) [AANAT bisubstrate analog, 7] | 5.23 |
